Measurements published in article PMC4581192, “Fenarimol, a Pyrimidine-Type Fungicide, Inhibits Brassinosteroid Biosynthesis” (International Journal of Molecular Sciences, 2015).

Target: T1, CYP90D1 (Arabidopsis thaliana, UniProt Q94IA6)
T1 construct: DNA fragment encoding CYP90D1 mature protein; expressed from pCold-GST in E. coli, fusion protein cleaved with HRV3C protease
T1 sequence (Q94IA6 1-491): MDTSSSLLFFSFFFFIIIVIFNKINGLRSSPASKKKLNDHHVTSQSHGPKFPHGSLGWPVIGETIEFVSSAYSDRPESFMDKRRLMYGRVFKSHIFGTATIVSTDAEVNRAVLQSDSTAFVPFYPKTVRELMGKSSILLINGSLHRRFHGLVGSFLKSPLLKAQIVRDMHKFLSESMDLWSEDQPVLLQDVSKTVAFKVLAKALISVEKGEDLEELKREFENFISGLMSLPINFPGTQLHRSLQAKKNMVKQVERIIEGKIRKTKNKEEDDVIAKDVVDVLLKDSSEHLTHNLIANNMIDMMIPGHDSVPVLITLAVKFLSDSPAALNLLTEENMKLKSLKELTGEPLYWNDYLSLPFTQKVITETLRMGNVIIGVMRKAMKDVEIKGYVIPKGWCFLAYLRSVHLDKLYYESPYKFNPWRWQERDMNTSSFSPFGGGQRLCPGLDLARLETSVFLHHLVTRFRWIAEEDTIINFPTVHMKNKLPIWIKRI
Assay: optical difference spectroscopy (type II spectral titration) of purified recombinant CYP90D1
Format: binding

SMILES: OC(c1ccc(Cl)cc1)(c1cncnc1)c1ccccc1Cl (stereo not shown) [FM, fenarimol]
- Kd: 790 nM
